Tests used:
[1] = tested on: MYB; assay: HiBiT protein abundance assay, MYB HiBiT K562 cell line; type: cell-based, human; conditions: HiBiT lytic detection, modified K562 cells, 24 hours, top dose 10 μM; read-out: Effect on protein abundance, MYB (IC50)
Method in brief: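 Endogenous targets in K562 knock-in lines carried a HiBiT tag and were treated for 24 h at 37 °C with 10-point 3-fold dilutions (top 10 μM final, DMSO ≤0.25%). Abundance was read as lytic Nano-Glo HiBiT luminescence. IC50 came from a four-parameter logistic fit of normalized response.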

[2] = tested on: Target C; assay: HiBiT protein abundance assay, Target C HiBiT K562 cell line; type: cell-based; conditions: Homo sapiens; HiBiT lytic detection, modified K562 cells, 24 hours, top dose 10 μM; read-out: Effect on protein abundance, Target C (IC50)
Method in brief: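 HiBiT knock-in K562 cells (10,000/well) were treated for 24 h at 37 °C with a 10-point 3-fold dilution series, top final concentration 10 μM, DMSO ≤0.25%. Lytic HiBiT luminescence was read, normalized to unmodified K562 and DMSO-treated controls, and IC50 was interpolated from a four-parameter logistic fit.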

| SMILES | IC50 [1] | IC50 [2] |
| --- | --- | --- |
| Cc1cn2nc(-c3ccc4c(=O)n(C5CC(C)N[C@H](C)C5)ncc4n3)cc(C)c2n1 (stereo in doubt) [Compound 1536, 2-(2,8-dimethylimidazo[1,2-b]pyridazin-6-yl)-6-[(2S,6R)-2,6-dimethyl-4-piperidyl]pyrido[2,3-d]pyridazin-5-one] | 0.1 to 1 µM | 0.1 to 1 µM |
| Cn1cc2cc(-c3ncc4c(=O)n([C@@H]5CCNC5)ccc4n3)c(O)c(F)c2n1 [Compound 1466] | 0.1 to 1 µM | 0.1 to 1 µM |
| Cn1cc2cc(-c3ncc4c(=O)n(C56CCC(N)(CC5)C6)ccc4n3)c(O)cc2n1 [Compound 1470] | 0.1 to 1 µM | 1 to 10 µM |
| Cc1c(O)c(-c2ncc3c(=O)n([C@@H]4C[C@H]5COC[C@@H](C4)N5)ccc3n2)cc2cn(C)nc12 [Compound 1471] | 0.1 to 1 µM | 0.1 to 1 µM |
| Cc1c(O)c(-c2ncc3c(=O)n([C@@H]4CC[C@H](N)C4)ccc3n2)cc2cn(C)nc12 [Compound 1477] | 0.1 to 1 µM | 0.1 to 1 µM |
| Cc1c(O)c(-c2nc(C)c3c(=O)n([C@@H]4CCNC5(CC5)C4)ccc3n2)cc2cn(C)nc12 [Compound 1515, (R)-2-(6-hydroxy-2,7-dimethyl-2H-indazol-5-yl)-4-methyl-6-(4-azaspiro[2.5]octan-7-yl)pyrido[4,3-d]pyrimidin-5(6H)-one] | < 0.1 µM | 0.1 to 1 µM |
| COc1cc(-c2ccc3c(=O)n([C@H]4CCN[C@@H](C)C4)ccc3n2)nn2cc(C)nc12 [Compound 1519, 2-(8-methoxy-2-methyl-imidazo[1,2-b]pyridazin-6-yl)-6-[(2S,4S)-2-methyl-4-piperidyl]-1,6-naphthyridin-5-one] | < 0.1 µM | < 0.1 µM |
| Cc1cn2nc(-c3ccc4c(=O)n([C@@H]5CCN(C)[C@H](C)C5)ncc4n3)cc(C)c2n1 [Compound 1527] | 0.1 to 1 µM | 0.1 to 1 µM |
| CCN1CC[C@H](n2ncc3nc(-c4cc(C)c5nc(C)cn5n4)ccc3c2=O)CC12CC2 [Compound 1531] | 0.1 to 1 µM | 0.1 to 1 µM |
| Cc1cn2nc(-c3ccc4c(=O)n(C5CCN(CCF)C6(CC6)C5)ncc4n3)cc(C)c2n1 (stereo not shown) [Compound 1542, 2-(2,8-dimethylimidazo[1,2-b]pyridazin-6-yl)-6-[4-(2-fluoroethyl)-4-azaspiro[2.5]octan-7-1]pyrido[2,3-d]pyridazin-5-one] | 1 to 10 µM | 0.1 to 1 µM |
| Cc1cc(-c2ccc3ncn(C4CCN(C)CC4)c(=O)c3c2)cc2cn(C)nc12 [Compound 2170] | > 10 µM | > 10 µM |
| Cc1cn2cc(-n3cnc4ccc(N5CCNCC5)cc4c3=O)cc(F)c2n1 [Compound 2195] | > 10 µM | > 10 µM |
| Cn1cc2cc(-n3cnc4ccc(N5CCNCC5)cc4c3=O)cc(F)c2n1 [Compound 2196] | > 10 µM | > 10 µM |
| Cc1cn2cc(-n3cnc4ccc(N5CCN(C)CC5)cc4c3=O)cc(F)c2n1 [Compound 2197] | 1 to 10 µM | 1 to 10 µM |
| CN(c1ccc2ncn(-c3cc(F)c4nn(C)cc4c3)c(=O)c2c1)C1CCNCC1 [Compound 2198] | > 10 µM | > 10 µM |
| CN1CCC(N(C)c2ccc3ncn(-c4cc(F)c5nn(C)cc5c4)c(=O)c3c2)CC1 [Compound 2199] | > 10 µM | > 10 µM |
| Cc1cn2cc(-n3cnc4ccc(N(C)C5CCNCC5)cc4c3=O)cc(F)c2n1 [Compound 2200] | > 10 µM | > 10 µM |
| Cc1cn2nc(-n3cnc4ccc(N5CCNCC5)cc4c3=O)cc(C)c2n1 [Compound 2201] | > 10 µM | > 10 µM |
| Cc1cn2nc(-n3cnc4ccc(N5CCN(C)CC5)cc4c3=O)cc(C)c2n1 [Compound 2202] | 1 to 10 µM | 1 to 10 µM |
| Cc1cc(-c2ccc3c(=O)[nH]c(N4CCNCC4)nc3c2)cc2cn(C)nc12 [Compound 2211] | > 10 µM | > 10 µM |
| Cc1cc(-c2ccc3c(=O)[nH]c(N4CCN(C)CC4)nc3c2)cc2cn(C)nc12 [Compound 2212] | > 10 µM | > 10 µM |

More lines, now with the values ahead:

| IC50 [1] | IC50 [2] | SMILES |
| --- | --- | --- |
| 0.1 to 1 µM | 1 to 10 µM | Cc1c(O)c(-c2ccc3c(=O)n(C4CCNC4)cc(C)c3n2)cc2cn(C)nc12 (stereo not shown) [Compound 1467] |
| < 0.1 µM | 0.1 to 1 µM | Cn1cc2cc(-c3ncc4c(=O)n(C56CCC(N)(CC5)C6)ccc4n3)c(O)c(F)c2n1 [Compound 1468] |
| 0.1 to 1 µM | 1 to 10 µM | Cc1cn2cc(-c3ncc4c(=O)n(C56CCC(N)(CC5)C6)ccc4n3)cc(F)c2n1 [Compound 1469, 6-(4-aminonorbornane-1-yl)-2-(8-fluoro-2-methyl-imidazo[1,2-a]pyridin-6-yl)pyrido[4,3-d]pyrimidin-5-one] |
| 0.1 to 1 µM | 1 to 10 µM | Cc1c(O)c(-c2ncc3c(=O)n([C@@H]4CC[C@@H](N)C4)ccc3n2)cc2cn(C)nc12 [Compound 1476, 6-[(1R,3R)-3-aminocyclopentyl]-2-(6-hydroxy-2,7-dimethyl-indazol-5-yl)pyrido[4,3-d]pyrimidin-5-one] |
| < 0.1 µM | 1 to 10 µM | CNC12CCC(n3ccc4nc(-c5cc6cn(C)nc6c(C)c5O)ncc4c3=O)(CC1)C2 [Compound 1479] |
| < 0.1 µM | 0.1 to 1 µM | Cc1c(O)c(-c2ncc3c(=O)n([C@H]4CCNC5(CC5)C4)ccc3n2)cc2cn(C)nc12 [Compound 1512] |
| 0.1 to 1 µM | 0.1 to 1 µM | Cc1cn2nc(-c3ccc4c(=O)n([C@H]5CCN(C)[C@@H](C)C5)ncc4n3)cc(C)c2n1 [Compound 1528, 2-(2,8-dimethylimidazo[1,2-b]pyridazin-6-yl)-6-(1,2-dimethyl-4-piperidyl)pyrido[2,3-d]pyridazin-5-one] |
| < 0.1 µM | < 0.1 µM | CCN1CC[C@@H](n2ncc3nc(-c4cc(C)c5nc(C)cn5n4)ccc3c2=O)CC12CC2 [Compound 1530] |
| 0.1 to 1 µM | 0.1 to 1 µM | Cc1cn2nc(-c3ccc4c(=O)n([C@H]5CCN(C)C6(CC6)C5)ncc4n3)cc(C)c2n1 [Compound 1533] |
| 0.1 to 1 µM | < 0.1 µM | Cc1cn2nc(-c3ccc4c(=O)n([C@@H]5CCN(C)C6(CC6)C5)ncc4n3)cc(C)c2n1 [Compound 1534] |
| 0.1 to 1 µM | 0.1 to 1 µM | Cc1cn2nc(-c3ccc4c(=O)n(C5CCN(CC6CC6)C6(CC6)C5)ncc4n3)cc(C)c2n1 (stereo not shown) [Compound 1543, 6-[4-(cyclopropylmethyl)-4-azaspiro[2.5]octan-7-yl]-2-(2,8-dimethylimidazo[1,2-b]pyridazin-6-yl)pyrido[2,3-d]pyridazin-5-one] |
| 0.1 to 1 µM | < 0.1 µM | Cc1cn2nc(-c3ccc4c(=O)n([C@@H]5CCNC6(CCC6)C5)ncc4n3)cc(C)c2n1 [Compound 1545, 6-[(8R)-5-azaspiro[3.5]nonan-8-yl]-2-(2,8-dimethylimidazo[1,2-b]pyridazin-6-yl)pyrido[2,3-d]pyridazin-5-one] |
| 1 to 10 µM | 1 to 10 µM | Cc1cn2nc(-c3ccc4c(=O)n(C5CCNC6(CCC6)C5)ncc4n3)cc(C)c2n1 (stereo not shown) [Compound 1553] |
| > 10 µM | > 10 µM | Cn1cc2ccc(-n3cnc4ccc(NC5CCNCC5)cc4c3=O)cc2n1 [Compound 2164] |
| > 10 µM | > 10 µM | Cc1cc(-c2ccc3ncn(C4CCNCC4)c(=O)c3c2)cc2cn(C)nc12 [Compound 2169] |
| > 10 µM | > 10 µM | CN1CCC(Nc2ccc3ncn(-c4ccc5nn(C)cc5c4)c(=O)c3c2)CC1 [Compound 2171] |
| > 10 µM | > 10 µM | Cc1cc(-c2nc3cc(N4CCNCC4)ccc3c(=O)[nH]2)cc2cn(C)nc12 [Compound 2213] |
